Legend:
HL-60 cells = assay: Apoptosis of HL-60 cells, DAPI staining of nuclear chromatin; type: cell-based; details: for Apoptic Cell Percentage: 24 hours
Description: Morphological changes in the nuclear chromatin of HL-60 cells undergoing apoptosis were detected by staining with 4′, 6-diamidino-2-phenylindole (DAPI). In brief, 0.5×10^6 to 3×10^6 cells were fixed with 4% glutaraledehyde, 0.2% Triton x-100, in PBS and incubated at room temperature for 10 min., then centrifuged at 1000×9 for 10 min., resuspended in 20 μ1 0.1% DAPI ethanol. Following 15 min. incubation at room temperature, at 10 μl aliquot was placed on a glass slide, and 400 cells per slide were scored for the incidence of apoptotic chromatin changes with a fluorescence microscope.

lymphocyte cells = assay: Apoptosis initiation: oligonucleosomal DNA fragmentation, DAPI staining, nick end labeling; type: cell-based; details: noscapine treatment 0 to 24 hr
Description: Oligonucleosomal fragmentation of genomic DNA was determined according to Walton, M. I. et. al., Cancer. Res. 53, 1853 (1993). An aliquot of 3.3×10^6 cells in 10 ml medium was incubated with […] for different time periods ranging from 0 to 24 hr. At the end of incubation, cells were pelleted and washed twice with ice-cold PBS, and lysed in 250 μl 1% (v/v) NP-40 detergent containing 0.5 mg/ml proteinase K in PBS solution on ice for 60 min. Samples were centrifuged, and the supernatants were removed and incubated with 5 μl 10 mg/ml Rnase A at 37° C. for 40 min. An aliquot of 1 ml anhydrous ethanol was added, tubes were placed at −20° C. for 20 min., then centrifuged to pellet DNA. […]
Morphological changes in the nuclear chromatin of cells undergoing apoptosis were detected by staining with 4′, 6-diamidino-2-phenylindole (DAPI). […] Following 15 min. incubation at room temperature, a 10 μl aliquot was placed on a glass slide, and 400 cells per slide were scored for the incidence of apoptotic chromatin changes with a fluorescence microscope. […]
After the slides were rinsed with PBS, 50 μl converter-POD solution was added on samples and incubated for 30 min. at 37° C. […] After the slides were rinsed with PBS for another 3 times, coverslips were mounted and analyzed with a light microscope.

bovine brain tubulin [1] = assay: Microtubule assembly, turbidity at 350 nm; type: biochemical; details: 20 μM noscapine, 37° C., G-PEM buffer
Description: (§1) Phosphocellulose purified bovine brain tubulin was employed throughout these biophysical experiments. Fluorescence titration for determining binding constants was performed according to Peyrot, V. et al., Biochemistry 31, 11125 (1992). In brief; at room temperature, 2 μM tubulin in 100 mM PIPES, 2 mM EGTA, 1 mM MgCl2 was excited at 278 nm, and the fluorescence emission spectra were recorded with bandwidths 2 nm. […] The concentration of noscapine was raised in increments of 0.5 μM, until the decrease in the fluorescence intensity was saturated. The value of the dissociation constant and the number of sites were obtained from Scatchard plots using the equation, […], where r is the ratio of the concentration of bound ligand to the total protein concentration and n is the number of binding sites. Circular dichroism (CD) spectra measurements were performed in a spectroscometer, in cells (0.1 cm path) at 25° C. Microtubule assembly was recorded on a spectrophotometer with thermocontroler. The cuvettes (0.4 cm path) containing 100 mM PIPES, 2 mM EGTA, 1 mM MgCl2 and 1 mM GTP (G-PEM buffer), and 20 μM noscapine/DMSO were kept at room temperature before addition of tubulin and shifting to 37° C. […] The assembly was monitored by measuring the changes in turbidity at 0.5 min. intervals. Noscapine was dissolved in DMSO at 0.8 mM and stocked at 4° C. […]

E.G7-OVA cells = assay: Inhibition of tumor growth, E.G7-OVA tumors in C57BL/6 mice; type: in vivo; details: 3 mg noscapine every day for three weeks, intraperitoneally or intragastric; vs saline
Description: C57BL/6 mice were injected subcutaneously in the right flank with 2×10^6 E.G7-OVA cells. Three days later, mice were injected intraperitoneally, every day for three weeks, either with 200 μl saline (n=10), or with 3 mg noscapine dissolved in 200 μl saline (n=10),. Third group of mice (n=10) was fed 3 mg noscapine via intragastric (i.g.) intubation using a 1 ml syringe fitted with a 20 gauge stainless steel ball point needle. After three weeks, all mice were sacrificed by cervical dislocation. Tumors were removed and weighted. Tumor weights were individually plotted and comparisons between control and treatment groups were analyzed by the Student's test.

thymocyte cells = assay: M phase arrest, alpha-tubulin immunofluorescence and flow cytometry, thymocyte cells; type: cell-based; details: 20 μM noscapine, 24 hr
Description: (§2) Hela cells were grown in DMEM supplemented with 10% fetal calf serum, 1 mM L-glutamine and 1% penicillin/streptomycin. The tumor cell line E-G7-OV A […] [Moore, M. W., et al., Cell. 54, 777 (1988)] was grown in RPM1 1640 with 10% fetal calf serum, 1% sodium pyruvate, 1 mM L-glutamine, 0.1% gentamycin, 50 μtM β-mercaptoethanol. Cells were grown at 37° C. in a 5% CO2 atmosphere. Cell viability was assessed by trypan blue exclusion analysis. Cell numbers were determined using a hemacytometer, C57BL/6 […] mice, 8 to 12 weeks of age, were obtained from Harian Sprague Dawley, Inc. (Indiananapolis, Ind.). Mice were maintained on standard laboratory chow and water ad libitum, in a temperature and light controlled environment. For immunofluorescence, both Hela and thymocyte cells were treated identically except the Hela cells were grown onto glass coverslips while EL4 thymocytes were put on glass coverslips after fixation. […]
(§3) Then cells were washed with 1% BSA-PBS solution for 10 min. at room temperature before incubating with a 1:200 dilution of a rhodamine labeled goat anti-mouse IgG antibody at room temperature for 45 min., then the coverslips were rinsed by 1% BSA/PBS solution for 10 min. and labeled by DAPI (4′, 6-diamino-2-phenyliudole) for another 10 min. at room temperature. […] Cells were examined with a fluorescence microscope. […] The samples were read on a cytometer.

[2] = test system: tumors derived from malignant melanoma cells; assay: Melanoma tumor progression in animals; type: in vivo
Hela cells = assay: M phase arrest, alpha-tubulin immunofluorescence and flow cytometry, Hela cells; type: cell-based; details: 20 μM noscapine, 24 hr
Description: as §2, §3

bovine brain tubulin [3] = assay: Tubulin binding by fluorescence titration, Scatchard plot
Description: as §1

solid lymphoid tumors = assay: Apoptosis in solid lymphoid tumors induced in mice, Haemotoxline and Eosine staining; type: in vivo; details: noscapine treated mice, microscopic examination

| Molecule | initiation of apoptosis (HL-60 cells) | Apoptic Cell Percentage (HL-60 cells; 20 μM in DMSO, first trial) | Apoptic Cell Percentage (HL-60 cells; 20 μM in DMSO, second trial) | Apoptic Cell Percentage (HL-60 cells; 50 μM in DMSO) | DNA degradation (gel electrophoresis of fragmented genomic DNA, staining of treated cells) (lymphocyte cells) | tubulin assembly (absorbance at 350 nm) (bovine brain tubulin [1]) | tumor weight (E.G7-OVA cells) | M phase arrest of microtubule arrays (thymocyte cells) | reduction of tumor volume compared to untreated animals [2] | M phase arrest of microtubule arrays (Hela cells) | Kd (bovine brain tubulin [3]; 2 μM tubulin, room temperature, Scatchard plot, read-out: apparent dissociation constant (Kd)) | fluorescence quenching of tubulin (bovine brain tubulin [3]; excitation 278 nm) | apoptotic morphologies of tumor cells (solid lymphoid tumors) |
| --- | --- | --- | --- | --- | --- | --- | --- | --- | --- | --- | --- | --- | --- |
| 1,3-dihydro-4,5-dimethoxy-1-[1-(8-methoxy-2-methyl-6,7-methylenedioxy-1,2,3,4-tetrahydroisoquinolinyl)] isobenzofuran-BH3 [Compound 3] | initiate apoptosis | 37% | 28% | 39% | – | – | – | – | – | – | – | – | – |
| COc1ccc2c(c1OC)CO[C@@H]2[C@H]1c2c(cc3c(c2OC)OCO3)CCN1C [Compound 4, 1,3-diliydro-4,5-dimethoxy-1-[1-(8-methoxy-2-methyl-6,7-methylenedioxy 1,2,3,4-tetrahydroixoquinolinyl)]isobenzofuran] | initiate apoptosis | 48% | 32% | 52% | – | – | – | – | – | – | – | – | – |
| COc1ccc2c(c1OC)C(=O)O[C@@H]2[C@H]1c2c(cc3c(c2OC)OCO3)CCN1C [Noscapine] | initiate apoptosis | 30% | 17% | 27% | progressive DNA degradation with increasing time | promotes tubulin assembly | significantly reduced tumor weight | microtubule arrays are arrested in M phase | ~83% | microtubule arrays are arrested in M phase | 1860 nM | affords fluorescence quenching of tubulin | many cells in noscapine treated mice with apoptotic morphologies |
